# Several values for one entry are separate records, joined by “and”; a condition that tells them apart may be missing. Equal entries are not always repeated. Where two headings read alike, the source gives them in different places.
# Tests used:
# [1] = Rat PK of suspension formulations, free form vs diphosphate salt; type: in vivo
# [2] = Stability measured by degradation products (DP, HPLC area-%); type: physicochemical
# Protocol: DPs are analyzed by HPLC (method see Table 3). They are calculated as area-% products. Compositions of the mixtures in mass % are as follows.
# For salts in water, acetonitrile was added to dilute the 0.2% slurry to 0.1% clear solution. For salts in methanol, acetonitrile or acetonitrile/water (50:50, v/v), the corresponding solvent or solvent mixture was added to dilute the 0.2% slurry to 0.1% clear solution. For salts in 0.5% CMC, HPMC cellulose 4000 0.5%, or Tween 80, 0.8%, tetrahydrofuran and water were added to dilute the 2% slurry to 0.1% clear solution and to reach tetrahydrofuran/water 50:50 (v/v). For bulk stability samples (including the samples in excipient mixtures), acetonitrile/water (80:20, v/v) was added to make 0.1% clear solution.
# [3] = Stability: appearance color (CL); type: physicochemical
# [4] = Solid form after stress test (XRPD/DSC); type: physicochemical
# [5] = Bulk corrosivity with stainless steel coupon; type: physicochemical; details: 2 day 80% r.h. with stainless steel coupon; change in the surface of the coupon
# [6] = pH of 1% solution or suspension; type: physicochemical; details: In water
# Protocol: The solutions were stirred continuously as the pH was measured.
# [7] = Thermogravimetry (weight loss / loss on drying); type: physicochemical; details: at 150° C.
# [8] = Hygroscopicity, DVS sorption/desorption isotherms; type: physicochemical; details: for DVS Desorp. Weight % chg. / DVS Sorp. Weight % chg.: 25° C.
# Protocol: Sorption/desorption isotherms: Instrument, Surface Measurement System DVS-1 temperature at 25±0.5° C.
# [9] = Crystal modification after 72 hours vibration (polymorphism behavior of slurries); type: physicochemical
# From the text: The slurries were filtered and the solids collected for XRPD analyses.
# [10] = Wistar rats, 10 mg/kg, suspension
# in vivo = details: Wistar, rat, 10 mg/kg, Wistar rats, suspension
# [11] = Approximate solubility at 25° C.; details: thermodynamic from solid
# [12] = 3.0 mg/kg PO dose in suspension, mean
# [13] = in vivo, 3.0 mg/kg PO dose in suspension, mean
# [14] = in vivo, IV 3 mg/kg, mean, n = 2
# [15] = individual rats, listed as Compound A Sulfate, monosulfate salt
smiles,measurement,setting,value
Cc1c(C(=O)Nc2ccc(N3C[C@@H](C)O[C@@H](C)C3)nc2)cccc1-c1ccc(OC(F)(F)F)cc1 [Free base],AUCinf/dose,[1]; [12],171 nM·h/mg/kg
same,AUClast/dose,[1]; [12],170 nM·h/mg/kg
same,Cmax/Dose,[1]; [12],78.9 nM/mg/kg
same,AUCinf/dose,"[1]; IV 3 mg/kg, mean, n = 2",5840 nM·h/mg/kg
same,AUClast/dose,"[1]; IV 3 mg/kg, mean, n = 2",5830 nM·h/mg/kg
same,bioavailability,"[1]; in vivo, 3.0 mg/kg PO dose in suspension",3%
same,AUC(0-inf),[1]; [13],0.512 µM·h
same,AUC(0-t),[1]; [13],0.51 µM·h
same,tmax,[1]; [13],0.5 h
same,Cmax,"[1]; in vivo, 3.0 mg/kg PO dose in suspension, mean, read-out: C0/Cmax",0.237 µM
same,AUC(0-inf),[1]; [14],17.5 µM·h
same,AUC(0-t),[1]; [14],17.5 µM·h
same,Cmax,"[1]; in vivo, IV 3 mg/kg, mean, n = 2, read-out: C0/Cmax",6.11 µM
"Cc1c(C(=O)Nc2ccc(N3C[C@@H](C)O[C@@H](C)C3)nc2)cccc1-c1ccc(OC(F)(F)F)cc1.O=S(=O)(O)O [Sulfate, mono]",DP [%],"[2]; 0.2% solutions or suspensions, 2 week 50° C., Acetonitrile",0.44%
same,DP [%],"[2]; 0.2% solutions or suspensions, 2 week 50° C., Acetonitrile/Water (50:50)",0.80%
same,DP [%],"[2]; 0.2% solutions or suspensions, 2 week 50° C., Methanol",0.68%
same,DP [%],"[2]; 0.2% solutions or suspensions, 2 week 50° C., Water",0.41%
same,DP [%],"[2]; 2% (or 5%) solutions or suspensions, 1 day room temperature, 0.5% CMC",0.45%
same,DP [%],"[2]; 2% (or 5%) solutions or suspensions, 1 day room temperature, HPMC Cellulose 4000 0.5%",0.47%
same,DP [%],"[2]; 2% (or 5%) solutions or suspensions, 1 day room temperature, Tween 80, 0.8%",0.43%
same,DP [%],"[2]; 2 weeks 50° C., tight container, 1% in mixture 1 (Lactose/maize starch/Aerosil/Magnesiumstearate)",0.41%
same,DP [%],"[2]; 2 weeks 50° C., tight container, 1% in mixture 2 (Mannitol/Avicel PH 102/Cutina HR)",0.44%
same,DP [%],"[2]; 2 weeks 50° C./75% r.h., 1% in mixture 1",0.70%
same,DP [%],"[2]; 2 weeks 50° C./75% r.h., 1% in mixture 2",0.41%
same,DP [%],"[2]; Solid state, 2 week 50° C., tight container, Bulk (HPLC)",0.40%
same,DP [%],"[2]; Solid state, 2 week 50° C./75% r.h., Bulk (HPLC)",0.42%
same,DP [%],"[2]; Solid state, 2 week 80° C., tight container, Bulk (HPLC)",0.43%
same,DP [%],"[2]; Solid state, 2 week 80° C./75% r.h., Bulk (HPLC)",1.34%
same,DP [%],"[2]; Unstressed drug substance, bulk",0.42%
same,DP [%],"[2]; Xenon light (approx. 1200 kLuxh), Bulk (HPLC)",1.1%
same,CL,"[3]; 0.2% solutions or suspensions, 2 week 50° C., Acetonitrile/Water (50:50), clear solution after stress test (*)",A *
same,CL,"[3]; 0.2% solutions or suspensions, 2 week 50° C., Acetonitrile, clear solution after stress test (*)",A *
same,CL,"[3]; 0.2% solutions or suspensions, 2 week 50° C., Methanol, clear solution after stress test (*)",A *
same,CL,"[3]; 0.2% solutions or suspensions, 2 week 50° C., Water, suspension (↓)",A ↓
same,CL,"[3]; 2% (or 5%) solutions or suspensions, 1 day room temperature, 0.5% CMC, suspension (↓)",A ↓
same,CL,"[3]; 2% (or 5%) solutions or suspensions, 1 day room temperature, HPMC Cellulose 4000 0.5%, suspension (↓)",A ↓
same,CL,"[3]; 2% (or 5%) solutions or suspensions, 1 day room temperature, Tween 80, 0.8%, suspension (↓)",A ↓
same,Bulk (XRPD): change,"[4]; Solid state, 2 week 50° C., tight container",No
same,Bulk (XRPD): change,"[4]; Solid state, 2 week 50° C./75% r.h., footnote: new peak in the XRPD pattern compared with unstressed diphosphate",No
same,Bulk (DSC): change,"[4]; Solid state, 2 week 80° C., tight container",No
same,Bulk (XRPD): change,"[4]; Solid state, 2 week 80° C./75% r.h., footnote: pattern similar to that of phosphate, with one extra peak",No
same,Bulk (XRPD): change,[4]; Xenon light (approx. 1200 kLuxh),No
same,Bulk corrosivity,[5],No visible change
same,pH of 1% solution or suspension,[6],1.45
same,Thermogravimetry (weight loss in %),[7]; Heating rate 10° C./min,1.89% at 150 °C
same,Loss on drying by TGA (%),"[7]; Hygroscopicity, as is",1.89 at 150 °C %
same,XRPD after DVS test,[8],No change
same,DVS Desorp. Weight % chg.,[8]; RH 0.0%,1.007%
same,DVS Sorp. Weight % chg.,[8]; RH 0.0%,0.000%
same,DVS Desorp. Weight % chg.,[8]; RH 25.0%,1.256%
same,DVS Sorp. Weight % chg.,[8]; RH 25.0%,1.232%
same,DVS Desorp. Weight % chg.,[8]; RH 50.0%,1.495%
same,DVS Sorp. Weight % chg.,[8]; RH 50.0%,1.455%
same,DVS Desorp. Weight % chg.,[8]; RH 75.0%,1.716%
same,DVS Sorp. Weight % chg.,[8]; RH 75.0%,1.634%
same,DVS Desorp. Weight % chg.,[8]; RH 95.0%,2.330%
same,DVS Sorp. Weight % chg.,[8]; RH 95.0%,2.330%
same,Crystal modification after 72 hours vibration (DSC/XRPD/TG),[9]; 0.1N HCl solution,XRPD pattern
same,Crystal modification after 72 hours vibration (DSC/XRPD/TG),"[9]; Acetonitrile, N—no, Y—yes","N, no form change"
same,Crystal modification after 72 hours vibration (DSC/XRPD/TG),"[9]; Ethanol, N—no, Y—yes","N, no form change"
same,Crystal modification after 72 hours vibration (DSC/XRPD/TG),"[9]; Ethyl acetate, N—no, Y—yes","N, no form change"
same,Crystal modification after 72 hours vibration (DSC/XRPD/TG),"[9]; Iso Propanol, N—no, Y—yes","N, no form change"
same,Crystal modification after 72 hours vibration (DSC/XRPD/TG),[9]; Water,Dissociated to free
same,Final pH of slurry,[9]; Water,Final pH 1.26
same,Crystal modification after 72 hours vibration (DSC/XRPD/TG),[9]; pH 3 buffer,Dissociated to free
same,Final pH of slurry,[9]; pH 3 buffer,Final pH 2.00
same,Crystal modification after 72 hours vibration (DSC/XRPD/TG),[9]; pH 6.8 buffer,Dissociated to free
same,Final pH of slurry,[9]; pH 6.8 buffer,Final pH 1.82
same,less exposure in-vivo than the diphosphate salt,[10],about 40%
same,AUC0-24/dose,[10]; [15],2590 (ng*h/mL)/(mg/kg/day) and 2870 (ng*h/mL)/(mg/kg/day) and 3620 (ng*h/mL)/(mg/kg/day)
same,Cmax,[10]; [15],1860 ng/mL and 3560 ng/mL
same,Cmax/Dose,[10]; [15],190 (ng/mL)/(mg/kg/day) (2×) and 360 (ng/mL)/(mg/kg/day)
same,tmax,[10]; [15],4 h and 2 h and 1 h
same,Cmax,"in vivo; Cmax, individual rats",1900 ng/mL
same,tmax,in vivo; mean tmax,2.3 h
same,solubility at 1 day,"[11]; 0.1N HCl, pH 1, simulated gastric fluid",3 µg/mL
same,solubility at 1 day,"[11]; 2-propanol, organic solvent or mixture",4000 µg/mL
same,solubility at 1 day,"[11]; acetone, organic solvent or mixture",1700 µg/mL
same,solubility at 1 day,"[11]; acetonitrile, organic solvent or mixture",1400 µg/mL
same,solubility at 1 day,"[11]; ethanol, organic solvent or mixture",19700 µg/mL
same,solubility at 1 day,"[11]; ethyl acetate, organic solvent or mixture",90 µg/mL
same,solubility at 1 day,"[11]; methanol, organic solvent or mixture",24400 µg/mL
same,solubility at 1 day,"[11]; phosphate buffer, pH 6.8, aqueous buffer",2 µg/mL
same,solubility at 1 day,[11]; water,7 µg/mL

# Source: patent US8063043B2, “Salts of N-[6-cis-2,6-dimethylmorpholin-4-yl)pyridine-3-yl]-2-methyl-4′-(trifluoromethoxy)[1,1′-biphenyl]-3-carboxamide” (Novartis AG, priority 2008, dated 2011)
